Reference: patent US5834487A, “Inhibition of 26S and 20S proteasome by indanones” (CV Therapeutics, priority 1996, dated 1998)
≈ marks a conversion by molar mass, not a printed value. Where two headings read alike, the source gives them in different places. Non-standard residues stand in square brackets, D forms with d. Residues, ends and D or L forms follow the SMILES beside them. *: point of attachment. Nva = CCC[C@H](N)C(=O)O; Cbz = O=C(OCc1ccccc1)*

Legend:
[1] = molecular target: T1, 20S catalytic subunit of the proteasome (multicatalytic proteinase complex) (Bos taurus, UniProt Q32KL2); assay: 20S proteasome chymotryptic activity, fluorogenic peptide cleavage; assay type: biochemical, bovine; details: 50 μM succinyl-leu-leu-val-tyr-7-amino-4-methyl coumarin, 15 minutes at 37° C, pH7.5
T1 construct: was purified to homogeneity from bovine brain according to published methods; from tissue; host or cells: bovine brain
Procedure, shortened: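 Purified bovine-brain 20S proteasome (2 μg) with 0.1-100 μg/ml inhibitor in 50 mM HEPES, 0.1% SDS, pH 7.5. Reaction started with 50 μM Suc-LLVY-AMC, 15 min at 37° C, stopped with pH 4.0 acetate; liberated AMC read by fluorescence (ex 370, em 430 nm).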

RAW cells = assay: Celltiter 96 Aqueous cell proliferation assay, RAW; assay type: cell-based; details: 18 hours with compound
Experimental: (§1) Compounds prepared according to the method of Example 1 were assayed against several different cell lines. Cell monolayers were cultured in the presence of test compound for 18 hours to access their ability to inhibit cell proliferation. Cell proliferation was determined colorimetrically using the Celltiter 96 Aqueous non-radioactive cell proliferation assay (Promega) where cell proliferation is directly proportional to absorbance at 490 nm. Results are quoted as the IC50 in μg/ml for inhibition of cell proliferation in various cell types.

OVCAR cells = assay: Celltiter 96 Aqueous cell proliferation assay, OVCAR; assay type: cell-based; details: 18 hours with compound
Experimental: as §1

Panc-I cells = assay: Celltiter 96 Aqueous cell proliferation assay, Panc-I; assay type: cell-based; details: 18 hours with compound
Experimental: as §1

[2] = tested on: LPS induced TNF synthesis; assay: Inhibition of LPS induced TNF synthesis in RAW cells (ELISA); assay type: cell-based; details: 1 hour pretreatment, LPS 100 ng/ml, supernatant after 1 hour
Experimental: Compounds prepared according to the method of Example 1 were tested for the inhibition of LPS induced TNF synthesis. RAW cells were pretreated with different concentrations of test compound for 1 hour prior to the administration of lipopolysaccharide (100 ng/mi). Cell culture supernatants were harvested after 1 hour and assayed for TNF concentration by ELISA (Biosource)

[3] = molecular target: T2, chymotrypsin-like activity associated with the proteasome (Homo sapiens, UniProt P28074); details: cited from earlier work
T2 sequence (P28074 60-263): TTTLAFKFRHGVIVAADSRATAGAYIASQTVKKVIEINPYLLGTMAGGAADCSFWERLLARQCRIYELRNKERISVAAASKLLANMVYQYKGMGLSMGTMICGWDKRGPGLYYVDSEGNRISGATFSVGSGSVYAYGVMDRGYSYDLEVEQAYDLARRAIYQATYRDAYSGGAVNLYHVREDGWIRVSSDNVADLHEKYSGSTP

Row | Compound | IC50 [1] [µg/mL] | other results
1 | COc1ccc(CNC(=O)C(CC(C)C)NC(=O)C(CC(C)C)NC(=O)CC2CC(=O)c3ccc(OC)cc32)cc1 (mixture of isomers) [Compound 194] | > 10 | IC50 for inhibition of cell proliferation, RAW (RAW cells): 1 µg/mL; IC50 for inhibition of cell proliferation, OVCAR (OVCAR cells): 3 µg/mL; IC50 for inhibition of cell proliferation, Panc-I (Panc-I cells): 8 µg/mL; IC50 inhibition of LPS induced TNF synthesis [2]: 3 µg/mL
2 | COc1ccc2c(c1)C(CC(=O)NC(CC(C)C)C(=O)NC(CC(C)C)C(=O)NCc1c(F)cccc1F)CC2=O (mixture of isomers) [Compound 196] | 0.08 | IC50 for inhibition of cell proliferation, RAW (RAW cells): 7 µg/mL; IC50 for inhibition of cell proliferation, OVCAR (OVCAR cells): 2 µg/mL; IC50 for inhibition of cell proliferation, Panc-I (Panc-I cells): 8 µg/mL; IC50 inhibition of LPS induced TNF synthesis [2]: 3 µg/mL
3 | COc1ccc2c(c1)C(CC(=O)NC(CC(C)C)C(=O)NC(CC(C)C)C(=O)NCc1ccc3c(c1)OCO3)CC2=O (mixture of isomers) [Compound 197] | 0.2 | IC50 for inhibition of cell proliferation, RAW (RAW cells): 12 µg/mL; IC50 for inhibition of cell proliferation, OVCAR (OVCAR cells): 2 µg/mL; IC50 for inhibition of cell proliferation, Panc-I (Panc-I cells): 8 µg/mL; IC50 inhibition of LPS induced TNF synthesis [2]: 3 µg/mL
4 | COc1ccc2c(c1)C(CC(=O)NC1CCCC1)CC2=O (centres unmarked) [Compound 74] | > 10 | 
5 | COc1ccc2c(c1)C(CC(=O)N1C(C)CCCC1C)CC2=O (centres unmarked) [Compound 75] | > 10 | 
6 | COc1ccc2c(c1)C(CC(=O)N(CCO)Cc1ccccc1)CC2=O (centres unmarked) [Compound 76] | > 10 | 
7 | COc1ccc2c(c1)C(CC(=O)N1CCc3ccccc31)CC2=O (centres unmarked) [Compound 77] | > 10 | 
8 | COc1ccc2c(c1)C(CC(=O)N(C)C)CC2=O (centres unmarked) [Compound 78] | > 10 | 
9 | COCCN(CCOC)C(=O)CC1CC(=O)c2ccc(OC)cc21 (centres unmarked) [Compound 79] | > 10 | 
10 | COc1ccc2c(c1)C(CC(=O)NCc1ccc3c(c1)OCO3)CC2=O (centres unmarked) [Compound 80] | > 10 | 
11 | COc1ccc2c(c1)C(CC(=O)N1CCC(O)CC1)CC2=O (centres unmarked) [Compound 81] | > 10 | 
12 | COc1ccc2c(c1)C(CC(=O)Nc1cccc(I)c1)CC2=O (centres unmarked) [Compound 82] | > 10 | 
13 | COc1ccc2c(c1)C(CC(=O)NC1CCc3ccccc31)CC2=O (centres unmarked) [Compound 83] | > 10 | 
14 | COc1ccc2c(c1)C(CC(=O)NCCO)CC2=O (centres unmarked) [Compound 84] | > 10 | 
15 | COc1ccc(CNC(=O)CC2CC(=O)c3ccc(OC)cc32)cc1 (centres unmarked) [Compound 85] | > 10 | 
16 | CCCC[C@@H](NC(=O)[C@H](CC(C)C)NC(=O)CC1CC(=O)c2ccc(OC)cc21)C(=O)NCC(N)=O (some centres unmarked) [Compound 86] | > 10 | 
17 | CCC[C@@H](NC(=O)[C@H](CC(C)C)NC(=O)CC1CC(=O)c2ccc(OC)cc21)C(=O)NCC(N)=O (some centres unmarked) [Compound 87] | > 10 | 
18 | COc1ccc2c(c1)C(CC(=O)N[C@@H](CC(C)C)C(=O)N[C@H](Cc1ccccc1)C(=O)NCC(N)=O)CC2=O (some centres unmarked) [Compound 88] | > 10 | 
19 | COc1ccc2c(c1)C(CC(=O)N[C@@H](CC(C)C)C(=O)N[C@H](CC1CCCCC1)C(=O)NCC(N)=O)CC2=O (some centres unmarked) [Compound 89] | > 10 | 
20 | COc1ccc2c(c1)C(CC(=O)N[C@@H](CC(C)C)C(=O)N[C@@H](C(=O)NCC(N)=O)C(C)C)CC2=O (some centres unmarked) [Compound 90] | > 10 | 
21 | COc1ccc2c(c1)C(CC(=O)N[C@@H](CC(C)C)C(=O)N[C@@H](C(=O)NCC(N)=O)c1ccccc1)CC2=O (some centres unmarked) [Compound 91] | 10 (≈ 19.1 µM) | 
22 | COc1ccc2c(c1)C(CC(=O)NCc1ccncc1)CC2=O (centres unmarked) [Compound 104] | > 10 | 
23 | COc1ccc2c(c1)C(CC(=O)N1CCSCC1)CC2=O (centres unmarked) [Compound 106] | > 10 | 
24 | COc1ccc2c(c1)C(CC(=O)NCc1ccccc1OC)CC2=O (centres unmarked) [Compound 107] | > 10 | 

Row | Compound | IC50 [1] [µg/mL] | other results
25 | COc1ccc2c(c1)C(CC(=O)N1CCC(C)CC1)CC2=O (centres unmarked) [Compound 108] | > 10 | 
26 | COc1ccc2c(c1)C(CC(=O)N1CCC(O)C1)CC2=O (centres unmarked) [Compound 109] | > 10 | 
27 | COc1ccc2c(c1)C(CC(=O)NC1CCN(Cc3ccccc3)CC1)CC2=O (centres unmarked) [Compound 110] | > 10 | 
28 | COc1ccc2c(c1)C(CC(=O)NCC(O)CO)CC2=O (centres unmarked) [Compound 111] | > 10 | 
29 | COc1ccc2c(c1)C(CC(=O)NCCN1CCCC1)CC2=O (centres unmarked) [Compound 112] | > 10 | 
30 | COc1ccc2c(c1)C(CC(=O)NC(C)(C)CO)CC2=O (centres unmarked) [Compound 113] | > 10 | 
31 | COc1ccc2c(c1)C(CC(=O)NCc1ccccn1)CC2=O (centres unmarked) [Compound 114] | > 10 | 
32 | COc1ccc2c(c1)C(CC(=O)N(C)CCO)CC2=O (centres unmarked) [Compound 115] | > 10 | 
33 | COc1ccc2c(c1)C(CC(=O)N(CCC#N)Cc1cccnc1)CC2=O (centres unmarked) [Compound 116] | > 10 | 
34 | COCCNC(=O)CC1CC(=O)c2ccc(OC)cc21 (centres unmarked) [Compound 117] | > 10 | 
35 | COc1ccc2c(c1)C(CC(=O)NC(CO)C(O)c1ccccc1)CC2=O (centres unmarked) [Compound 118] | > 10 | 
36 | COc1ccc2c(c1)C(CC(=O)N1CCCC1CO)CC2=O (centres unmarked) [Compound 119] | > 10 | 
37 | COc1ccc2c(c1)C(CC(=O)NCCCc1ccccc1)CC2=O (centres unmarked) [Compound 120] | > 10 | 
38 | COc1ccc(NC(=O)CC2CC(=O)c3ccc(OC)cc32)cc1 (centres unmarked) [Compound 121] | > 10 | 
39 | COc1ccc2c(c1)C(CC(=O)Nc1ccccc1)CC2=O (centres unmarked) [Compound 122] | > 10 | 
40 | COc1ccc2c(c1)C(CC(=O)N(c1ccc(O)cc1)c1ccc3ccccc3c1)CC2=O (centres unmarked) [Compound 144] | > 10 | 
41 | COc1ccc2c(c1)C(CC(=O)Nc1nc(O)c(C)c(O)n1)CC2=O (centres unmarked) [Compound 145] | > 10 | 
42 | COc1ccc(CN(C(=O)CC2CC(=O)c3ccc(OC)cc32)c2ccccn2)cc1 (centres unmarked) [Compound 149] | > 10 | 
43 | COc1ccc2c(c1)C(CC(=O)NCCCCCCN)CC2=O (centres unmarked) [Compound 150] | > 10 | 
44 | COc1ccc2c(c1)C(CC(=O)N1CCC(O)(c3ccccc3)CC1)CC2=O (centres unmarked) [Compound 151] | > 10 | 
45 | CSCC[C@@H](C=O)NC(=O)[C@H](CC(C)C)NC(=O)[C@H](CC(C)C)NC(C)=O [LLM, N-acetyl-L-leucinyl-L-leucinyl-methional] (Ac-Leu-Leu-Met-aldehyde) |  | Ki ([3]; literature values): 140 nM
46 | CCC[C@@H](C=O)NC(=O)[C@H](CC(C)C)NC(=O)[C@H](CC(C)C)NC(=O)OCc1ccccc1 [MG 115, N-carbobenzoxyl-L-leucinyl-L-leucinyl-L-norvalinal] (Cbz-Leu-Leu-[Nva]-aldehyde) |  | Ki ([3]; literature value): 21 nM
47 | N-acetyl-L-leucinyl-L-leucinal-L-norleucinal [ALLN] |  | Ki ([3]; literature values): 140 nM
